Results taken from US20250221410A1, “SUBSTITUTED 2-C-AZINES AND SALTS THEREOF, AND USE THEREOF AS HERBICIDAL ACTIVE SUBSTANCES” (BAYER AKTIENGESELLSCHAFT, priority 2022, published 2025).

What was measured:
Assay type in all cases: in vivo
[1] = test system: ALOMY: Alopecurus myosuroides; experiment: Post-emergence herbicidal efficacy at 1280 g/ha, ALOMY; details: rated visually after about 3 weeks vs untreated controls, 100% = plants have died, 0% = like control plants
Method: (§1) Seeds of mono- and dicotyledonous weed plants were placed in plastic pots in sandy loam soil (doubly sown with in each case one species of mono- or dicotyledonous weed plants per pot), covered with soil and cultivated in a greenhouse under controlled growth conditions. 2 to 3 weeks after sowing, the test plants were treated at the one-leaf stage. The compounds of the invention, formulated in the form of wettable powders (WP) or as emulsion concentrates (EC), were applied to the green parts of the plants as aqueous suspension or emulsion with addition of 0.5% additive at a water application rate equivalent to 600 litres per hectare. After the test plants had been kept in the greenhouse under optimum growth conditions for about 3 weeks, the activity of the preparations was rated visually in comparison to untreated controls. For example, 100% activity=the plants have died, 0% activity=like control plants. Tables A1 to A12 below show the effects of selected compounds of the general formula (I) according to Table 1 on various harmful plants and at an application rate corresponding to 1280 g/ha, which were obtained by the trial procedure specified above.

POAAN: Poa annua [2] = experiment: Pre-emergence herbicide efficacy at 1280 g/ha, POAAN; details: visual scoring after about 3 weeks vs untreated controls
Summary of the method: (§2)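 Pre-em, sandy loam pots, seeds covered w/ soil. WP/EC formulation, aq. spray onto soil surface, 0.5% additive, 600 L/ha. Greenhouse ~3 wk; visual % vs untreated (0 = control, 100 = dead).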

[3] = test system: ALOMY: Alopecurus myosuroides; experiment: Pre-emergence herbicide efficacy at 1280 g/ha, ALOMY; details: visual scoring after about 3 weeks vs untreated controls
Summary of the method: as §2

[4] = test system: ECHCG: Echinochloa crus-galli; experiment: Post-emergence herbicidal efficacy at 1280 g/ha, ECHCG; details: rated visually after about 3 weeks vs untreated controls, 100% = plants have died, 0% = like control plants
Summary of the method: (§3)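 Weeds grown in sandy loam in the greenhouse were sprayed at the one-leaf stage, 2 to 3 weeks after sowing, with WP or EC formulations in water plus 0.5% additive at 600 L/ha. Damage was scored visually about 3 weeks later against untreated controls (0% = like control, 100% = plants dead).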

VERPE: Veronica persica [5] = experiment: Post-emergence herbicidal efficacy at 80 g/ha, VERPE; details: visual rating about 3 weeks after treatment vs untreated controls
Summary of the method: (§4)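 Post-emergence spray, one-leaf stage (2–3 wk after sowing), sandy loam, greenhouse; WP/EC in water + 0.5% additive, 600 l/ha. Visual % activity vs untreated controls at ~3 wk; 100% = plants dead, 0% = like control.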

STEME: Stellaria media [6] = experiment: Post-emergence herbicidal efficacy at 1280 g/ha, STEME; details: visual rating about 3 weeks after treatment vs untreated controls
Summary of the method: as §3

[7] = test system: ABUTH: Abutilon theophrasti; experiment: Pre-emergence herbicide efficacy at 1280 g/ha, ABUTH; details: visual scoring after about 3 weeks vs untreated controls
Summary of the method: as §2

KCHSC: Kochia scoparia [8] = experiment: Post-emergence herbicidal efficacy at 80 g/ha, KCHSC; details: visual rating about 3 weeks after treatment vs untreated controls
Method: (§5) Seeds of monocotyledonous and dicotyledonous weeds and crop plants were placed in sandy loam in plastic or organic planting pots, covered with soil and cultivated in a greenhouse under controlled growth conditions. 2 to 3 weeks after sowing, the test plants were treated at the one-leaf stage. The compounds of the invention, formulated in the form of wettable powders (WP) or as emulsion concentrates (EC), were then sprayed onto the green parts of the plants as aqueous suspension or emulsion with addition of 0.5% additive at a water application rate of 600 l/ha (converted). After the test plants had been kept in the greenhouse under optimum growth conditions for about 3 weeks, the activity of the preparations was rated visually in comparison to untreated controls. For example, 100% activity=the plants have died, 0% activity=like control plants. Tables B1 to B10 below show the effects of selected compounds of the general formula (I) according to Table 1 on various harmful plants and an application rate corresponding to 80 g/ha, which were obtained by the experimental procedure mentioned above.

[9] = test system: MATIN: Matricaria inodora; experiment: Pre-emergence herbicide efficacy at 1280 g/ha, MATIN; details: visual scoring after about 3 weeks vs untreated controls
Summary of the method: as §2

[10] = test system: ABUTH: Abutilon theophrasti; experiment: Post-emergence herbicidal efficacy at 1280 g/ha, ABUTH; details: rated visually after about 3 weeks vs untreated controls, 100% = plants have died, 0% = like control plants
Summary of the method: as §3

[11] = test system: DIGSA: Digitaria sanguinalis; experiment: Pre-emergence herbicide efficacy at 1280 g/ha, DIGSA; details: visual scoring after about 3 weeks vs untreated controls
Summary of the method: as §2

[12] = test system: ECHCG: Echinochloa crus-galli; experiment: Pre-emergence herbicide efficacy at 1280 g/ha, ECHCG; details: visual scoring after about 3 weeks vs untreated controls
Summary of the method: as §2

[13] = test system: AMARE: Amaranthus retroflexus; experiment: Pre-emergence herbicide efficacy at 1280 g/ha, AMARE; details: visual scoring after about 3 weeks vs untreated controls
Summary of the method: as §2

[14] = test system: AMARE: Amaranthus retroflexus; experiment: Post-emergence herbicidal efficacy at 80 g/ha, AMARE; details: visual rating about 3 weeks after treatment vs untreated controls
Summary of the method: as §4

LOLRI: Lolium rigidum [15] = experiment: Pre-emergence herbicide efficacy at 1280 g/ha, LOLRI; details: visual scoring after about 3 weeks vs untreated controls
Description: Seeds of mono- and dicotyledonous weed plants were placed in plastic pots in sandy loam soil (doubly sown with one species each of mono- or dicotyledonous weed plants per pot) and covered with soil. The compounds of the invention, formulated in the form of wettable powders (WP) or as emulsion concentrates (EC), were then applied to the surface of the covering soil as aqueous suspension or emulsion with addition of 0.5% additive at a water application rate of 600 litres per hectare (converted). After the treatment, the pots were placed in a greenhouse and kept under good growth conditions for the test plants. After about 3 weeks, the efficacy of the preparations was scored visually in comparison with untreated controls as percentages. For example, 100% activity=the plants have died, 0% activity=like control plants. Tables C1 to C12 below show the effects of selected compounds of the general formula (I) according to Table 1 on various harmful plants and at an application rate corresponding to 1280 g/ha, which were obtained by the trial procedure specified above.

VERPE: Veronica persica [16] = experiment: Pre-emergence herbicide efficacy at 1280 g/ha, VERPE; details: visual scoring vs untreated controls
Summary of the method: as §2

KCHSC: Kochia scoparia [17] = experiment: Post-emergence herbicidal efficacy at 1280 g/ha, KCHSC; details: visual rating about 3 weeks after treatment vs untreated controls
Summary of the method: as §3

[18] = test system: AMARE: Amaranthus retroflexus; experiment: Post-emergence herbicidal efficacy at 1280 g/ha, AMARE; details: rated visually after about 3 weeks vs untreated controls, 100% = plants have died, 0% = like control plants
Summary of the method: as §3

VIOTR: Viola tricolor [19] = experiment: Post-emergence herbicidal efficacy at 80 g/ha, VIOTR; details: visual rating about 3 weeks after treatment vs untreated controls
Method: as §5

VERPE: Veronica persica [20] = experiment: Post-emergence herbicidal efficacy at 1280 g/ha, VERPE; details: visual rating about 3 weeks after treatment vs untreated controls
Summary of the method: as §3

LOLRI: Lolium rigidum [21] = experiment: Post-emergence herbicidal efficacy at 1280 g/ha, LOLRI; details: visual rating about 3 weeks after treatment vs untreated controls
Method: as §1

KCHSC: Kochia scoparia [22] = experiment: Pre-emergence herbicide efficacy at 1280 g/ha, KCHSC; details: visual scoring after about 3 weeks vs untreated controls
Summary of the method: as §2

SETVI: Setaria viridis [23] = experiment: Post-emergence herbicidal efficacy at 1280 g/ha, SETVI; details: visual rating about 3 weeks after treatment vs untreated controls
Summary of the method: as §3

POAAN: Poa annua [24] = experiment: Post-emergence herbicidal efficacy at 1280 g/ha, POAAN; details: visual rating about 3 weeks after treatment vs untreated controls
Summary of the method: as §3

VIOTR: Viola tricolor [25] = experiment: Pre-emergence herbicide efficacy at 80 g/ha, VIOTR; details: scored visually after about 3 weeks
Description: (§6) Seeds of monocotyledonous and dicotyledonous weed plants and crop plants were placed in plastic or organic planting pots and covered with soil. The compounds of the invention, formulated in the form of wettable powders (WP) or as emulsion concentrates (EC), were then applied to the surface of the covering soil as aqueous suspension or emulsion with addition of 0.5% additive at a water application rate equivalent to 600 l/ha. After the treatment, the pots were placed in a greenhouse and kept under good growth conditions for the test plants. After about 3 weeks, the efficacy of the preparations was scored visually in comparison with untreated controls as percentages. For example, 100% activity=the plants have died, 0% activity=like control plants. Tables D1 to D12 below show the effects of selected compounds of the general formula (I) according to Table 1 on various harmful plants and an application rate corresponding to 80 g/ha, which were obtained by the experimental procedure mentioned above.

[26] = test system: DIGSA: Digitaria sanguinalis; experiment: Post-emergence herbicidal efficacy at 1280 g/ha, DIGSA; details: rated visually after about 3 weeks vs untreated controls, 100% = plants have died, 0% = like control plants
Summary of the method: as §3

SETVI: Setaria viridis [27] = experiment: Pre-emergence herbicide efficacy at 1280 g/ha, SETVI; details: visual scoring vs untreated controls
Summary of the method: as §2

STEME: Stellaria media [28] = experiment: Pre-emergence herbicide efficacy at 1280 g/ha, STEME; details: visual scoring vs untreated controls
Summary of the method: as §2

VERPE: Veronica persica [29] = experiment: Pre-emergence herbicide efficacy at 80 g/ha, VERPE; details: scored visually after about 3 weeks
Summary of the method: (§7)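 Visual scoring against untreated controls after about 3 weeks gave percent activity, where 0% means growth like controls and 100% means plants died. Test compounds, as wettable powders or emulsion concentrates with 0.5% additive, were applied to the covering soil of freshly sown pots at a water rate equivalent to 600 l/ha.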

[30] = test system: MATIN: Matricaria inodora; experiment: Pre-emergence herbicide efficacy at 80 g/ha, MATIN; details: scored visually after about 3 weeks
Description: as §6

KCHSC: Kochia scoparia [31] = experiment: Pre-emergence herbicide efficacy at 80 g/ha, KCHSC; details: scored visually after about 3 weeks
Description: as §6

[32] = test system: MATIN: Matricaria inodora; experiment: Post-emergence herbicidal efficacy at 1280 g/ha, MATIN; details: visual rating about 3 weeks after treatment vs untreated controls
Method: as §1

[33] = test system: ABUTH: Abutilon theophrasti; experiment: Pre-emergence herbicide efficacy at 80 g/ha, ABUTH; details: scored visually after about 3 weeks
Description: as §6

[34] = test system: DIGSA: Digitaria sanguinalis; experiment: Pre-emergence herbicide efficacy at 80 g/ha, DIGSA; details: scored visually after about 3 weeks
Description: as §6

SETVI: Setaria viridis [35] = experiment: Pre-emergence herbicide efficacy at 80 g/ha, SETVI; details: scored visually after about 3 weeks
Description: as §6

[36] = test system: AMARE: Amaranthus retroflexus; experiment: Pre-emergence herbicide efficacy at 80 g/ha, AMARE; details: scored visually after about 3 weeks
Summary of the method: as §7

SMILES | Pre-emergence efficacy against POAAN (POAAN: Poa annua [2]) | Pre-emergence efficacy against ALOMY [3] | Post-emergence efficacy at 1280 g/ha against ECHCG in % [4] | Post-emergence efficacy against VERPE (VERPE: Veronica persica [5]) | Post-emergence efficacy against STEME (STEME: Stellaria media [6]) | Pre-emergence efficacy against ABUTH [7] | Pre-emergence efficacy against MATIN [9] | Post-emergence efficacy at 1280 g/ha against ABUTH in % [10] | Pre-emergence efficacy against DIGSA [11] | Pre-emergence efficacy against ECHCG [12] | Pre-emergence efficacy against AMARE [13] | Pre-emergence efficacy against LOLRI (LOLRI: Lolium rigidum [15]) | Pre-emergence efficacy against VERPE in % (VERPE: Veronica persica [16]) | Post-emergence efficacy against KCHSC (KCHSC: Kochia scoparia [17]) | Post-emergence efficacy at 1280 g/ha against AMARE in % [18] | Post-emergence efficacy against VIOTR (VIOTR: Viola tricolor [19]) | Post-emergence efficacy against VERPE (VERPE: Veronica persica [20]) | Pre-emergence efficacy against KCHSC (KCHSC: Kochia scoparia [22]) | Post-emergence efficacy against SETVI (SETVI: Setaria viridis [23]) | Post-emergence efficacy against POAAN (POAAN: Poa annua [24]) | also measured
Fc1ccc(Oc2c(Cc3ncc(Cl)cn3)cccc2C(F)(F)F)cc1 [Example 1-40] | 100% | 100% | 100% | 90% | 100% | 100% | 90% | 100% | 100% | 100% | 100% | 100% | 100% | 100% | 100% | 100% | 100% | 90% | 90% | 90% | Post-emergence efficacy at 1280 g/ha against ALOMY in % [1]: 100%; Post-emergence efficacy against KCHSC (KCHSC: Kochia scoparia [8]): 90%; Post-emergence efficacy against AMARE [14]: 90%; Post-emergence efficacy against LOLRI (LOLRI: Lolium rigidum [21]): 100%; Pre-emergence efficacy against VIOTR in % (VIOTR: Viola tricolor [25]): 100%; Post-emergence efficacy at 1280 g/ha against DIGSA in % [26]: 90%; Pre-emergence efficacy against SETVI in % (SETVI: Setaria viridis [27]): 100%; Pre-emergence efficacy against STEME in % (STEME: Stellaria media [28]): 100%
Cc1cccc(Oc2ncc(F)cn2)c1Cc1ncc(Cl)cn1 [Example 1-65] | 100% | 90% | 90% | 90% | 100% | 100% | 100% | 100% | 100% | 100% | 100% | 100% | 100% | 100% | 100% | 100% | 100% | 100% | 90% | 100% | Pre-emergence efficacy against VERPE in % (VERPE: Veronica persica [29]): 100%; Pre-emergence efficacy against MATIN in % [30]: 100%; Pre-emergence efficacy against KCHSC in % (KCHSC: Kochia scoparia [31]): 100%; Post-emergence efficacy against MATIN [32]: 100%; Pre-emergence efficacy against ABUTH in % [33]: 90%; Pre-emergence efficacy against DIGSA in % [34]: 90%; Pre-emergence efficacy against SETVI in % (SETVI: Setaria viridis [35]): 90%; Pre-emergence efficacy against AMARE in % [36]: 100%; Pre-emergence efficacy against VIOTR in % (VIOTR: Viola tricolor [25]): 100%; Pre-emergence efficacy against SETVI in % (SETVI: Setaria viridis [27]): 100%; Pre-emergence efficacy against STEME in % (STEME: Stellaria media [28]): 100%
